Like-named read-outs stand apart in the source and are kept apart here. Starred links: 1 amine or outer side, 2 acyl side, 3 side chain; linkers in the order of their positions; H or OH if unused. Non-standard residues stand in square brackets, D forms with d. Residues, ends and D or L forms follow the SMILES beside them. No end group written: not given here. *: point of attachment. Phe(4-NO2) = N[C@@H](Cc1ccc([N+](=O)[O-])cc1)C(=O)O; Benzoyl(2-COOH) = O=C(O)c1ccccc1C(=O)*; Phe(3-F) = N[C@@H](Cc1cccc(F)c1)C(=O)O; 1Nal = N[C@@H](Cc1cccc2ccccc12)C(=O)O; 3Pal = N[C@@H](Cc1cccnc1)C(=O)O; pS = N[C@@H](COP(=O)(O)O)C(=O)O; X4 = O=S(=O)(c1ccc(Cl)cc1Cl)*; Fumaroyl = O=C(O)/C=C/C(=O)*; Suc = O=C(CCC(=O)[*:2])[*:1]; MeOSuc = COC(=O)CCC(=O)*
Molecular target: βTrCP (Homo sapiens, UniProt Q9Y297)
Assay: Fluorescence polarisation (FP) binding assay with fluorescein-tagged IκB peptide
Settings: for IC50: Tables 1, 3, 7, 8, 10 nM fluorescein-tagged IκB peptide

Chain of βTrCP (Q9Y297 whole entry): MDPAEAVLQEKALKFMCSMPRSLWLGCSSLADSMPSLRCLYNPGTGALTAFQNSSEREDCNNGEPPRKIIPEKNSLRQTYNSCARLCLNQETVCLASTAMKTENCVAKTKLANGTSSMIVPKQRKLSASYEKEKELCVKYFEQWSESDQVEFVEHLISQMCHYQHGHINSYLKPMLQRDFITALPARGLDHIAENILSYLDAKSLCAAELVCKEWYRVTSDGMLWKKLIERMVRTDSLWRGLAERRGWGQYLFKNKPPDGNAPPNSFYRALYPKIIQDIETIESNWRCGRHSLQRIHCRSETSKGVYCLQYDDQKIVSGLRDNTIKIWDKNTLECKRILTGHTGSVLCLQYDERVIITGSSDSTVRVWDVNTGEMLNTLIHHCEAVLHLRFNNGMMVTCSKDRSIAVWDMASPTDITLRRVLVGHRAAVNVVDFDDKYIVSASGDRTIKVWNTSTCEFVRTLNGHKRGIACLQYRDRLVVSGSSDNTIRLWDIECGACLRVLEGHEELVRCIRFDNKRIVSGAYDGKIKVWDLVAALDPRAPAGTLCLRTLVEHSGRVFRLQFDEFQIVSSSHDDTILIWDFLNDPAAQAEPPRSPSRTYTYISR
Chain of βTrCP (P63208 whole entry partner): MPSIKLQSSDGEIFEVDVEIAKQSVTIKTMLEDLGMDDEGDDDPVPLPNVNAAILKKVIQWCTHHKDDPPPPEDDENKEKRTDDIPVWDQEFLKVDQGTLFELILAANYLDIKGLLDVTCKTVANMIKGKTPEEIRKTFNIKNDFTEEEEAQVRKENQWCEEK

| Molecule | IC50 (read-out: FP Assay IC50/μM) [µM] | other results |
| --- | --- | --- |
| NC(=O)CC[C@H](NC(=O)[C@H](Cc1cccc2ccccc12)NC(=O)[C@H](Cc1cccc(F)c1)NC(=O)CNC(=O)[C@H](CCC(=O)O)NC(=O)CCC(=O)O)C(N)=O [Suc-EG-F(3F)-1Nal-Q-NH2] (Suc-EG[Phe(3-F)][1Nal]Q-NH2) | 7.22 |  |
| C[C@H](NC(=O)[C@H](CCC(=O)O)NC(=O)CCC(=O)O)C(=O)N[C@@H](Cc1ccccc1)C(=O)N[C@@H](Cc1ccccc1)C(=O)N[C@@H](CCC(=O)O)C(N)=O [Suc-EAFFE-NH2] | 59.8 |  |
| NC(=O)CC[C@H](NC(=O)CCC(=O)O)C(=O)NCC(=O)N[C@@H](Cc1ccc(O)cc1)C(=O)N[C@@H](Cc1ccccc1)C(=O)N[C@@H](CCC(=O)O)C(N)=O [Suc-QGYFE-NH2] | 10.7 |  |
| DAGIHS-NH2 [DAGIHS-NH2] | > 100 |  |
| NC(=O)[C@H](CCC(=O)O)NC(=O)[C@H](Cc1cccc2ccccc12)NC(=O)[C@H](Cc1ccc(O)cc1)NC(=O)CNC(=O)[C@@H](N)CCC(=O)O [EGY-1Nal-E-NH2] (H-EGY[1Nal]E-NH2) | > 100 |  |
| NC(=O)[C@H](Cc1ccc([N+](=O)[O-])cc1)NC(=O)[C@H](Cc1ccccc1)NC(=O)CNC(=O)[C@H](CCC(=O)O)NC(=O)CCC(=O)O [Suc-EGF-F(4NO2)-NH2] (Suc-EGF[Phe(4-NO2)]-NH2) | > 100 |  |
| CC[C@H](C)[C@H](NC(=O)CNC(=O)[C@H](C)NC(=O)[C@H](N)CC(=O)O)C(=O)N[C@@H](Cc1ccccc1)C(=O)N[C@@H](CCCNC(=N)N)C(N)=O [dAGIFR-NH2] (H-[dD]AGIFR-NH2) | > 100 |  |
| NC(=O)[C@H](Cc1cccnc1)NC(=O)[C@H](Cc1cccc(F)c1)NC(=O)CNC(=O)[C@H](CCC(=O)O)NC(=O)CCC(=O)O [Suc-EG-F(3F)-3Pal-NH2] (Suc-EG[Phe(3-F)][3Pal]-NH2) | 70 |  |
| H-DEGFFE-NH2 [DEGFFE-NH2] |  | IC50 (FP Assay IC50/μM): 43.6 µM |
| COc1ccc(C[C@H](NC(=O)[C@H](Cc2cccc(F)c2)NC(=O)CNC(=O)[C@H](CCC(=O)O)NC(=O)CCC(=O)O)C(=O)N[C@@H](CCC(=O)O)C(N)=O)cc1 [Suc-EG-F(3F)-Y(Me)-E-NH2] (Suc-EG[Phe(3-F)]Y(Me)E-NH2) | 1.4 |  |
| DAGNFE-NH2 [DAGNFE-NH2] | > 100 |  |
| NC(=O)[C@H](Cc1cccc2ccccc12)NC(=O)[C@H](Cc1ccc([N+](=O)[O-])cc1)NC(=O)CNC(=O)[C@H](CCC(=O)O)NC(=O)CCC(=O)O [Suc-EG-F(4NO2)-1Nal-NH2] (Suc-EG[Phe(4-NO2)][1Nal]-NH2) | 14 |  |
| NC(=O)[C@H](CCC(=O)O)NC(=O)[C@H](Cc1ccc([N+](=O)[O-])cc1)NC(=O)[C@H](Cc1cccc(F)c1)NC(=O)CNC(=O)[C@H](CCC(=O)O)NC(=O)/C=C/C(=O)O [Fum-EG-F(3F)-F(4NO2)-E-NH2] (Fumaroyl-EG[Phe(3-F)][Phe(4-NO2)]E-NH2) | 60.4 |  |
| CC[C@H](C)[C@H](NC(=O)CNC(=O)[C@H](COP(=O)(O)O)NC(=O)[C@H](CC(=O)O)NC(=O)[C@H](C)N)C(=O)N[C@@H](Cc1c[nH]cn1)C(=O)N[C@@H](CO)C(N)=O [AD-pS-GIHS-NH2] (H-AD[pS]GIHS-NH2) | > 100 |  |
| NC(=O)[C@H](Cc1ccc([N+](=O)[O-])cc1)NC(=O)[C@H](Cc1cccc(F)c1)NC(=O)CNC(=O)[C@H](CCC(=O)O)NC(=O)CCC(=O)O [Suc-EG-F(3F)-F(4NO2)-NH2] (Suc-EG[Phe(3-F)][Phe(4-NO2)]-NH2) | > 100 |  |
| NC(=O)[C@H](CCC(=O)O)NC(=O)[C@H](Cc1c[nH]c2ccccc12)NC(=O)[C@H](Cc1cccc(F)c1)NC(=O)CNC(=O)[C@H](CCC(=O)O)NC(=O)[C@@H](CC(=O)O)NS(=O)(=O)c1ccc(Cl)cc1Cl [UBP048, 2,4-(Cl)2-PhSO2-dEGF(3F)WE-NH2] (X4-[dD]EG[Phe(3-F)]WE-NH2) |  | Ki (FP dose-response): 27 nM |
| CC[C@H](C)[C@H](NC(=O)CNC(=O)[C@H](C)NC(=O)c1ccccc1C(=O)O)C(=O)N[C@@H](Cc1ccccc1)C(=O)N[C@@H](CCC(=O)O)C(N)=O [Phth-AGIFE-NH2] ({Benzoyl(2-COOH)}-AGIFE-NH2) | > 100 |  |

More lines, main results first:

| IC50 (read-out: FP Assay IC50/μM) [µM] | Molecule | other results |
| --- | --- | --- |
| 8.01 | C[C@H](NC(=O)CCC(=O)O)C(=O)NCC(=O)N[C@@H](Cc1cccc(F)c1)C(=O)N[C@@H](Cc1ccc([N+](=O)[O-])cc1)C(=O)N[C@@H](CCC(=O)O)C(N)=O [Suc-AG-F(3F)-F(4NO2)-E-NH2] (Suc-AG[Phe(3-F)][Phe(4-NO2)]E-NH2) |  |
| 10 | NC(=O)CC[C@H](NC(=O)CCC(=O)O)C(=O)NCC(=O)N[C@@H](Cc1ccccc1)C(=O)N[C@@H](Cc1ccccc1)C(=O)N[C@@H](CCC(=O)O)C(N)=O [Suc-QGFFE-NH2] |  |
| > 100 | NC(=O)[C@H](Cc1cccc(F)c1)NC(=O)[C@H](Cc1ccccc1)NC(=O)CNC(=O)[C@H](CCC(=O)O)NC(=O)CCC(=O)O [Suc-EGF-F(3F)-NH2] (Suc-EGF[Phe(3-F)]-NH2) |  |
| > 100 | CC[C@H](C)[C@H](NC(=O)[C@H](Cc1c[nH]cn1)NC(=O)CNC(=O)[C@H](CO)NC(=O)[C@H](COP(=O)(O)O)NC(=O)[C@H](CC(=O)O)NC(=O)[C@@H](N)CC(C)C)C(=O)N[C@@H](CO)C(N)=O [LD-pS-SGHIS-NH2] (H-LD[pS]SGHIS-NH2) |  |
| > 100 | C[C@H](NC(=O)CCC(=O)O)C(=O)NCC(=O)N[C@@H](Cc1ccccc1)C(=O)N[C@@H](Cc1ccccc1)C(=O)N[C@@H](CCC(=O)O)C(N)=O [Suc-AGFFE-NH2] (Suc-AGFFE-NH2) |  |
| 1.6 | COC(=O)CCC(=O)N[C@@H](CCC(=O)O)C(=O)NCC(=O)N[C@@H](Cc1cccc(F)c1)C(=O)N[C@@H](Cc1cccc2ccccc12)C(=O)N[C@@H](CCC(=O)O)C(N)=O [(MeO)Suc-EG-F(3F)-1Nal-E-NH2] (MeOSuc-EG[Phe(3-F)][1Nal]E-NH2) |  |
| > 100 | CC[C@H](C)[C@H](NC(=O)CNC(=O)[C@H](CCC(=O)O)NC(=O)CCC(=O)O)C(=O)N[C@@H](Cc1ccccc1)C(=O)N[C@@H](CCC(=O)O)C(N)=O [Suc-EGIFE-NH2] (Suc-EGIFE-NH2) |  |
| > 100 | DDASGIHS-NH2 [DDASGIHS-NH2] |  |
| > 100 | VDAGIHS-NH2 [VDAGIHS-NH2] |  |
| 22.2 | C[C@H](NC(=O)CCC(=O)O)C(=O)NCC(=O)N[C@@H](Cc1ccc(O)cc1)C(=O)N[C@@H](Cc1ccccc1)C(=O)N[C@@H](CCC(=O)O)C(N)=O [Suc-AGYFE-NH2] |  |
| > 100 | C[C@H](NC(=O)[C@@H](N)CCC(=O)O)C(=O)N[C@@H](Cc1cccc(F)c1)C(=O)N[C@@H](Cc1ccc([N+](=O)[O-])cc1)C(=O)N[C@@H](CCC(=O)O)C(N)=O [EA-F(3F)-F(4NO2)-E-NH2] |  |
| > 100 | CC[C@H](C)[C@H](NC(=O)CNC(=O)[C@H](CCC(=O)O)NC(=O)c1ccccc1C(=O)O)C(=O)N[C@@H](Cc1ccccc1)C(=O)N[C@@H](CCC(=O)O)C(N)=O [Phth-EGIFE-NH2] ({Benzoyl(2-COOH)}-EGIFE-NH2) |  |

— US20190106460A1, “BINDING INHIBITORS OF THE BETA. TRANSDUCIN REPEAT-CONTAINING PROTEIN” (priority 2011, published 2019)
